The results in this text go back to patent US6806283B2, “Selective serotonin receptor antagonists and therapeutic applications thereof” (Virginia Commonwealth University, priority 2002, dated 2004).

Read-outs that look alike come from different tables or passages of the source.

One experiment concerns the target T1, 5-HT2c receptor (Homo sapiens, UniProt P28335).
T1 sequence (P28335 33-458): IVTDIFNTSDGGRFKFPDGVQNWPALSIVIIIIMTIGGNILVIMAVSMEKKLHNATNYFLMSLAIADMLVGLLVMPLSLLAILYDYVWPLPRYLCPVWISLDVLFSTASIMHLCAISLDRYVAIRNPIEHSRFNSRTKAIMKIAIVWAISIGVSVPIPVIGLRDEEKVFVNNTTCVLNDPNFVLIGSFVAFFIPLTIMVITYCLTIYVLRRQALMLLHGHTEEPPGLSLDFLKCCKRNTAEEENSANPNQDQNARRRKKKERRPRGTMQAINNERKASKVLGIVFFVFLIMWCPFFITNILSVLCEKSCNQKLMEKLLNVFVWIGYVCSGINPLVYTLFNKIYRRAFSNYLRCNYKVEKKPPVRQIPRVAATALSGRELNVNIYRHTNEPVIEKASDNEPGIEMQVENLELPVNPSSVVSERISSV
The experiment is described as follows: Affinity for 5-HT2c receptor. The format is binding.

Experiment [1] addresses 5-HT2A serotonin receptor (Homo sapiens, UniProt P28223). As to the kind of experiment: 5-HT2A serotonin receptor radioligand binding assay (3H-ketanserin).
Procedure: Binding assays were conducted in which the affinity of each of the compounds of interest for the 5-HT2A serotonin receptor was tested. Assays were conducted with the 5-HT2A receptor in buffer consisting of 50 mM Tris-Cl, 0.5 mM EDTA, 5 mM MgCl2, pH=7.4.
For a further experiment, the target named is serotonin transporter (Homo sapiens, UniProt P31645). The experiment is described as follows: Affinity for serotonin transporter. The format is binding.
serotonin transporter, sequence (P31645 whole entry): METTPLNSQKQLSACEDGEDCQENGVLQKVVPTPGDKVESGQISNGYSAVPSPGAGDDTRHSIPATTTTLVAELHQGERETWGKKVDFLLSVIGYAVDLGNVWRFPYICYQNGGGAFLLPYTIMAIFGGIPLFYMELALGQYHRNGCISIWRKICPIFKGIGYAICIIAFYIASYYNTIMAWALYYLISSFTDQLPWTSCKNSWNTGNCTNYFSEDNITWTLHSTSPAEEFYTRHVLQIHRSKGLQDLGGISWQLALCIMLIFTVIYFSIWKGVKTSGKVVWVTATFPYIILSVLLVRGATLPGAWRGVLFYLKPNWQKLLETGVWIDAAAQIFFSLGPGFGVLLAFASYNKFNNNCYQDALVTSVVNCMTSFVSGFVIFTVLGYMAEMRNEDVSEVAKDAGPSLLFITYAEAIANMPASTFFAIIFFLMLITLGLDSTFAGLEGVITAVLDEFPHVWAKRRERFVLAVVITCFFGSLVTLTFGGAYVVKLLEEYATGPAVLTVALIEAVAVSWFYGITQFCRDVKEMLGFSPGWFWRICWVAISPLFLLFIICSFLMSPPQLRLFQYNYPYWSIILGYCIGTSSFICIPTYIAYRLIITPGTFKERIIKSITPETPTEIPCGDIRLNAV
For another experiment, the target named is dopamine D2 receptor (Homo sapiens, UniProt P14416). The experiment is described as follows: Affinity for dopamine D2 receptor. The format is binding.
dopamine D2 receptor, sequence (P14416 whole entry, species assumed): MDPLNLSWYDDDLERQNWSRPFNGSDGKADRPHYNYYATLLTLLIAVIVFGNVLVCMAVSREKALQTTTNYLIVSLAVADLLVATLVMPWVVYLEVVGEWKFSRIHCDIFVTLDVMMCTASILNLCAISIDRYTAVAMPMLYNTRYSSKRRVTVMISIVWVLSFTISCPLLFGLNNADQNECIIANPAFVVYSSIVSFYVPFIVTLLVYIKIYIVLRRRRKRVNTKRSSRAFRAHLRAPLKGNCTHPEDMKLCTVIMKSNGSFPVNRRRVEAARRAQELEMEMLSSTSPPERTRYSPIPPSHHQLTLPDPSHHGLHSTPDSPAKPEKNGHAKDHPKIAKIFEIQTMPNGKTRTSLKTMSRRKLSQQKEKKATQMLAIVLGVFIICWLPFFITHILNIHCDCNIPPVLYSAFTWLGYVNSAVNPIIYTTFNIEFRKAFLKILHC
The target of a further experiment is 5-HT2 receptor (Homo sapiens, UniProt P28223). As to the kind of experiment: Affinity for 5-HT2 receptors. The format is binding.
5-HT2 receptor, sequence (P28223 whole entry): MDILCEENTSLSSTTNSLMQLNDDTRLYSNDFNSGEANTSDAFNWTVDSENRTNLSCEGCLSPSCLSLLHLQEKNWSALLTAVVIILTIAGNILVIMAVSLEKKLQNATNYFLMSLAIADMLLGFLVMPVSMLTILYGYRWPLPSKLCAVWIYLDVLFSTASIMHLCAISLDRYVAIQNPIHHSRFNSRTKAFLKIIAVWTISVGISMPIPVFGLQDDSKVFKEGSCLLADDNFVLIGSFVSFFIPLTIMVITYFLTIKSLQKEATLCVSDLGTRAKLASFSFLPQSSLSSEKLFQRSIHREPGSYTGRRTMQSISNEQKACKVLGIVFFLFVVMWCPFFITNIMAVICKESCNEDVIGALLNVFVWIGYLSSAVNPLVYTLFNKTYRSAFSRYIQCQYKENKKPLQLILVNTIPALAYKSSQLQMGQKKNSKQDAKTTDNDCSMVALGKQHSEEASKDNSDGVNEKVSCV
Experiment [2] has as its target norepinephrine transporter (Homo sapiens, UniProt P23975). The experiment is described as follows: Affinity for norepinephrine transporter. The format is binding.
In the next experiment the target is H1 histamine receptor (Homo sapiens, UniProt P35367). The experiment is described as follows: H1 histamine receptor radioligand binding assay (3H-pyrilamine). Here is the method:
Binding assays were also conducted in which the affinity of selected compounds of interest for the H1 histamine receptor was tested. […] The H1 determinations used ^3H-pyrilamine as the radioligand with chlorpheniramine as the reference compound.

[3] abbreviates: 3H-pyrilamine radioligand, chlorpheniramine reference, read-out: H1 Ki.
Where [4] appears, read: in words, read-out: affinity class for histamine H1 receptor.

H1 histamine receptor, sequence (P35367 whole entry): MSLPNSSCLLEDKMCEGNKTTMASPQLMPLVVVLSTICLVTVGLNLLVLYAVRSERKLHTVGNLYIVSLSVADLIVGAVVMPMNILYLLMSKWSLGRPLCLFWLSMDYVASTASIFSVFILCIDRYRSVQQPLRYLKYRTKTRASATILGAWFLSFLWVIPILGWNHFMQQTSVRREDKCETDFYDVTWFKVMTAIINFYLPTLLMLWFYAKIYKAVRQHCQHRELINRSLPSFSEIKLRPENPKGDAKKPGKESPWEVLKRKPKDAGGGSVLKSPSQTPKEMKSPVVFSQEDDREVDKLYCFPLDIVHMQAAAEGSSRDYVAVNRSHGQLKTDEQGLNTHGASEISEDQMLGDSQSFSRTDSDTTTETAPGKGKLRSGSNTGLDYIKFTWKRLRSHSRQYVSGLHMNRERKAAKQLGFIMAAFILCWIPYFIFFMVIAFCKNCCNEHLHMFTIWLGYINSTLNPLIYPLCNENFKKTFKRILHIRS
5-HT2A serotonin receptor, sequence (P28223 whole entry): as the sequence (P28223 whole entry) above
norepinephrine transporter, sequence (P23975 whole entry, species assumed): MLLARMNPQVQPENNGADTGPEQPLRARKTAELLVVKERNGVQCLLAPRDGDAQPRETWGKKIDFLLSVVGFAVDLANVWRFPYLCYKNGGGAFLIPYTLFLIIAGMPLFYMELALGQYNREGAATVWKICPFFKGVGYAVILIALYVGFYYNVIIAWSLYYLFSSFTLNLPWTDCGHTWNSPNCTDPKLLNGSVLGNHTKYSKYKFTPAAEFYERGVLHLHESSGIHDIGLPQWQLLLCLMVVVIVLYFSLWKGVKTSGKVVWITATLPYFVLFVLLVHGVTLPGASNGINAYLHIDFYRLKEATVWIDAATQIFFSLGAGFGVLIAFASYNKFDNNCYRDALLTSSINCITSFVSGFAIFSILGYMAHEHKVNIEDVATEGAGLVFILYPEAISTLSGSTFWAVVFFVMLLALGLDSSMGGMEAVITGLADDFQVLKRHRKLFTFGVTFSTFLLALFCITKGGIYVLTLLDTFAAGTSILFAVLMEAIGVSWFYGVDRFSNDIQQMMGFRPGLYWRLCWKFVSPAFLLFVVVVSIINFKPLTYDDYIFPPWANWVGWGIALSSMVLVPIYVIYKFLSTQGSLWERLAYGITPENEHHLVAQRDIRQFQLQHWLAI

As to `c1ccc2c(c1)Cc1ccccc1C21CCNC1` [Compound 5, Spiro[9,10-dihydroanthracene]-9,3′-pyrrolidine], the Ki at 5-HT2c receptor is 1 to 500 nM; on 5-HT2c receptor (read-out: Ki for 5-HT2c receptor), 24 nM; in experiment [1], 3.8 nM; on serotonin transporter, over 10000 nM; on dopamine D2 receptor, 5040 nM; on 5-HT2 receptor it was 1 to 500 nM. Further, the Ki on 5-HT2 receptor (read-out: Ki for 5-HT2 receptors) was 4 nM; in experiment [2] it was over 10000 nM; on H1 histamine receptor (setting [3]) it was 8.5 nM; on H1 histamine receptor (setting [4]), at most 100 nM.

For the compound `CN1CCC2(C1)c1ccccc1Cc1ccccc12` [Compound 6, Spiro[9,10-dihydroanthracene]-9,3′-(1-methyl)-pyrrolidine], the Ki in experiment [1] came out at 46 nM.

Regarding `c1ccc(CN2CCC3(C2)c2ccccc2Cc2ccccc23)cc1` [Compound 7, Spiro[9,10-dihydroanthracene]-9,3′-(1-benzyl)-pyrrolidine], in experiment [1], the Ki is 220 nM.

Compound `CC1(C)c2ccccc2C2(CCNC2)c2ccccc21` [Compound 12, Spiro[-(10,10-dimethyl)-9,10-dihydroanthracene]-9,3′-pyrrolidine] showed a Ki in experiment [1] of 68 nM.

Turning to `COc1ccc2c(c1)Cc1ccccc1C21CCN(Cc2ccccc2)C1` (stereo not drawn) [Compound 16, 3-Methoxy-9,9-[spiro-3′-(n-benzyl)-pyrrolidinyl]-9,10-dihydroanthracene], the Ki was 1000 nM in experiment [1], 74 nM at H1 histamine receptor (setting [3]) and at most 100 nM at H1 histamine receptor (setting [4]).

In the case of `COc1ccc2c(c1)Cc1ccccc1C21CCNC1` (stereo not drawn) [Compound 17, 3-Methoxy-9,9-[spiro-3′-pyrrolidinyl]-9,10-dihydro-anthracene], the Ki in experiment [1] was 3.7 nM; on H1 histamine receptor (setting [3]), 40 nM; at H1 histamine receptor (setting [4]) it was at most 100 nM.

Regarding `Oc1ccc2c(c1)Cc1ccccc1C21CCN(Cc2ccccc2)C1` (stereo not drawn) [Compound 18, 3-Hydroxy-9,9-[spiro-3′-(n-benzyl)-pyrrolidinyl]-9,10-dihydroanthracene], the Ki in experiment [1] was 330 nM.

For `Oc1ccc2c(c1)Cc1ccccc1C21CCNC1` (stereo not drawn) [Compound 19, Spiro[-(3-hydroxy)-9,10-dihydroanthracene]-9,3′-pyrrolidine], the Ki in experiment [1] was found to be 9.2 nM.

In experiment [1], `CCCCCCc1ccc2c(c1)Cc1ccccc1C21CCN(Cc2ccccc2)C1` (stereo not drawn) [Compound 20, 3-n-Hexyl-9,9-[spiro-3′-(n-benzyl)-pyrrolidinyl]-9,10-dihydroanthracene] registered a Ki of 2030 nM.

For `CCCCCCc1ccc2c(c1)Cc1ccccc1C21CCNC1` (stereo not drawn) [Compound 21, 3-n-Hexyl-9,9-[spiro-3′-pyrrolidinyl]-9,10-dihydroanthracene], the Ki in experiment [1] was found to be 6 nM; at H1 histamine receptor (setting [3]), 1600 nM.

Take `c1ccc(CCCc2ccc3c(c2)Cc2ccccc2C32CCN(Cc3ccccc3)C2)cc1` (stereo not drawn) [Compound 22, 3-(3-Phenylpropyl)-9,9-[spiro-3′-(n-benzyl)-pyrrolidinyl]-9,10-dihydroanthracene]: the Ki in experiment [1] was 998 nM.

In turn, `c1ccc(CCCc2ccc3c(c2)Cc2ccccc2C32CCNC2)cc1` (stereo not drawn) [Compound 23, 3-(3-Phenylpropyl)-9,9-[spiro-3′-pyrrolidinyl]-9,10-dihydroanthracene] returned a Ki in experiment [1] of 3.5 nM.

For the compound `c1ccc(-c2ccc3c(c2)Cc2ccccc2C32CCNC2)cc1` (stereo not drawn) [Compound 25, 3-(3-Phenyl)-9,9-[spiro-3′-pyrrolidinyl]-9,10-dihydroanthracene], the Ki in experiment [1] amounted to 18 nM.

In the case of `c1ccc2c(c1)Oc1ccccc1C21CCNC1` [Compound 30, Spiro[xanthenyl]-9,3′-pyrrolidine], the Ki is 40 nM in experiment [1], 51 nM on H1 histamine receptor (setting [3]) and at most 100 nM on H1 histamine receptor (setting [4]).

Take `c1ccc2c(c1)Sc1ccccc1C21CCNC1` [Compound 36, Spiro[thioxanthenyl]-9,3′-pyrrolidine]: the Ki in experiment [1] was 5 nM; at H1 histamine receptor (setting [3]), 6 nM; at H1 histamine receptor (setting [4]), at most 100 nM.
